Experimental data taken from ChEMBL document CHEMBL1146419, “Antimicrobial and cytotoxic phenolic glycoside esters from the New Zealand tree Toronia toru” (J Nat Prod, 1997).
Values after ≈ are worked out from the molar mass of the structure shown.

Assays:
[1] = tested on: Trichophyton mentagrophytes; test: Antimicrobial activity against Trichophyton mentagrophytes at 60 ug/disk; assay type: functional; conditions: read-out: IZ
[2] = tested on: Trichophyton mentagrophytes; test: Antimicrobial activity against Trichophyton mentagrophytes at 30 ug/disk; assay type: functional; conditions: read-out: IZ
[3] = Cytotoxicity against african green monkey BSC1 cells at 120 ug/disk; assay type: cell-based; conditions: chlorocebus aethiops, bsc-1
[4] = Cytotoxicity against african green monkey BSC1 cells at 60 ug/disk; assay type: cell-based; conditions: chlorocebus aethiops, bsc-1
[5] = Cytotoxicity against african green monkey BSC1 cells at 30 ug/disk; assay type: cell-based; conditions: chlorocebus aethiops, bsc-1
P388 = test: Cytotoxicity against mouse P388 cells; assay type: functional, cell-based
Bacillus subtilis [6] = test: Antimicrobial activity against Bacillus subtilis at 120 ug/disk; assay type: functional; conditions: read-out: IZ
Bacillus subtilis [7] = test: Antimicrobial activity against Bacillus subtilis at 60 ug/disk; assay type: functional; conditions: read-out: IZ
Bacillus subtilis [8] = test: Antimicrobial activity against Bacillus subtilis at 30 ug/disk; assay type: functional; conditions: read-out: IZ
Escherichia coli [9] = test: Antimicrobial activity against Escherichia coli at 120 ug/disk; assay type: functional; conditions: read-out: IZ
Escherichia coli [10] = test: Antimicrobial activity against Escherichia coli at 60 ug/disk; assay type: functional; conditions: read-out: IZ
Escherichia coli [11] = test: Antimicrobial activity against Escherichia coli at 30 ug/disk; assay type: functional; conditions: read-out: IZ
Pseudomonas aeruginosa [12] = test: Antimicrobial activity against Pseudomonas aeruginosa at 120 ug/disk; assay type: functional; conditions: read-out: IZ
Pseudomonas aeruginosa [13] = test: Antimicrobial activity against Pseudomonas aeruginosa at 60 ug/disk; assay type: functional; conditions: read-out: IZ
Pseudomonas aeruginosa [14] = test: Antimicrobial activity against Pseudomonas aeruginosa at 30 ug/disk; assay type: functional; conditions: read-out: IZ
[15] = tested on: Trichophyton mentagrophytes; test: Antimicrobial activity against Trichophyton mentagrophytes at 120 ug/disk; assay type: functional; conditions: read-out: IZ
[16] = tested on: Trichophyton mentagrophytes; test: Antimicrobial activity against Trichophyton mentagrophytes at 15 ug/disk; assay type: functional; conditions: read-out: IZ
[17] = Cytotoxicity against african green monkey BSC1 cells at 15 ug/disk; assay type: cell-based; conditions: chlorocebus aethiops, bsc-1
Bacillus subtilis [18] = test: Antimicrobial activity against Bacillus subtilis at 15 ug/disk; assay type: functional; conditions: read-out: IZ
Escherichia coli [19] = test: Antimicrobial activity against Escherichia coli at 15 ug/disk; assay type: functional; conditions: read-out: IZ
Pseudomonas aeruginosa [20] = test: Antimicrobial activity against Pseudomonas aeruginosa at 15 ug/disk; assay type: functional; conditions: read-out: IZ

Structure (SMILES) | zone of inhibition at 60 µg/disc [1] [mm] | zone of inhibition at 30 µg/disc [2] [mm] | Activity [3] [%] | Activity [4] [%] | Activity [5] [%] | IC50 (P388) [µg/mL] | zone of inhibition at 120 µg/disc (Bacillus subtilis [6]) [mm] | zone of inhibition at 60 µg/disc (Bacillus subtilis [7]) [mm] | zone of inhibition at 30 µg/disc (Bacillus subtilis [8]) [mm] | zone of inhibition at 120 µg/disc (Escherichia coli [9]) [mm] | zone of inhibition at 60 µg/disc (Escherichia coli [10]) [mm] | zone of inhibition at 30 µg/disc (Escherichia coli [11]) [mm] | zone of inhibition at 120 µg/disc (Pseudomonas aeruginosa [12]) [mm] | zone of inhibition at 60 µg/disc (Pseudomonas aeruginosa [13]) [mm] | zone of inhibition at 30 µg/disc (Pseudomonas aeruginosa [14]) [mm] | zone of inhibition at 120 µg/disc [15] [mm] | Activity [17] [%] | also measured
C=C(C(=O)OC[C@H]1O[C@@H](Oc2ccc(O)cc2)[C@H](O)[C@@H](O)[C@@H]1O)[C@@H](O)CO | 0 | 0 | 100 | 100 | 50 | 3 (≈ 7.76 µM) | 5 | 1 | 0 | 4 | 2 | 0 | 3 | 1 | 0 | 5 | – | –
C=C1CCOC1=O [TULIPALINE A] | 0 | 0 | 100 | 100 | 100 | 0.8 (≈ 8.15 µM) | 10 | 0 | 0 | 5 | 0 | 0 | 4 | 0 | 0 | 8 | 100 | zone of inhibition at 15 µg/disc [16]: 0 mm; zone of inhibition at 15 µg/disc (Bacillus subtilis [18]): 0 mm; zone of inhibition at 15 µg/disc (Escherichia coli [19]): 0 mm; zone of inhibition at 15 µg/disc (Pseudomonas aeruginosa [20]): 0 mm
C=C(CCO)C(=O)OC[C@H]1O[C@@H](Oc2ccc(O)cc2)[C@H](O)[C@@H](O)[C@@H]1O | 0 | 0 | 100 | 100 | 100 | > 25 | 0 | 0 | 0 | 0 | 0 | 0 | 0 | 0 | 0 | 0 | 50 | –
OC[C@H]1O[C@@H](Oc2ccc(O)cc2)[C@H](O)[C@@H](O)[C@@H]1O [ARBUTIN] | – | – | 50 | – | – | > 25 | 0 | – | – | 0 | – | – | 0 | – | – | 0 | – | –
Oc1ccc(O)cc1 [HYDROQUINONE] | 0 | 0 | 100 | 100 | 75 | 3 (≈ 27.2 µM) | 9 | 4 | 3 | 5 | 0 | 0 | 3 | 3 | 2 | 10 | – | –
